Article PMC6826694, “Validation of Hepatocellular Carcinoma Experimental Models for TGF-β Promoting Tumor Progression” (Cancers, 2019)

Experiments:
SK-HEP1-Luc cells = system: SK-HEP1-Luc cells; set-up: method as in PMID 26549110; conditions: oral administration, female BALB/C nu/nu, orthotopic SK-HEP1-Luc; ref [45]; cited from earlier work
HepG2-Luc cells = assay: Orthotopic HCC model, intrahepatic HepG2-Luc cells in NOG mice, tumor growth by IVIS bioluminescence; assay type: in vivo, mouse; conditions: for Bioluminescence (average radiance, IVIS) vs vehicle (GP1): NOG mice, HepG2-Luc
Description: To evaluate in vivo the effect of Galunisertib (LY2157299) on tumor growth rate we used an orthotopic model: HCC was induced by intrahepatic injections of 1 × 10^6 HepG2-Luc cells in 7–8 weeks old, female NOG mice. The inoculated animals presented a clear engraftment of the liver cancer. The tumor growth was monitored weekly with IVIS Spectrum (PerkinElmer) through intraperitoneal administration of D-Luciferin (Sigma, 150 mg/10 mL/kg) until the end of the experiment.
Two weeks after the injection of HepG2-Luc cells, 45 mice were selected based on the bioluminescence signal and randomized into three groups of 15 animals. The first group (control group) was treated with 10 mL/kg of a […] vehicle solution (10% DMSO, 30% PEG400, 10% EtOH, 30% saline solution, 20% HCl 0.01 M, final pH 6.0). The second group (GP2) received 10 mL/kg Galunisertib solution via gastric probe (OS) and in the third group of mice (GP3) the drug was administered intravenously (IV) with 5 mL/kg Galunisertib encapsulated in polymeric nanocapsules. This nanoencapsulation was used to optimize the formulation in order to maximize therapeutic efficiency and minimize systemic toxicity. The nanocapsules were prepared from biocompatible and biodegradable polymers as described previously.
After sacrificing the animals, a complete necropsy was performed and documented by photos. Before sacrificing the animals, they were imaged by IVIS Spectrum to identify bioluminescent tissues for explantation.
Figure 4 Treatment of NOD/Shi-Scid/IL-2Rγ^null […] (NOG) mice with luciferin-labeled hepatocellular carcinoma (HCC) with vehicle or two Galunisertib preparations. (A). Bioluminescence images of NOG mice prior injected intrahepatically with HepG2-Luc cells at Day 23 and 44 after vehicle injection (GP1), or Galunisertib administration via gavage (GP2) or intravenous route (GP3). (B) Average Radiance (IVIS) versus time after tumor inoculation. Data were averaged over the animals which reached the end of experiment (GP1: n = 15; GP2: n = 14; GP3: n = 10).

[1] = system: TGF-β1, TGF-β RI and TGF-β RII mRNA; assay: qRT-PCR mRNA expression in tumor tissues of the orthotopic model; assay type: in vivo, mouse; conditions: for mRNA expression of TGF-βI, TGF-β RI and TGF-β RII levels vs controls: tumor tissues, qRT-PCR
Excerpt: No difference was found comparing the two Galunisertib formulations.

[2] = Appearance / solubility of Galunisertib in the dosing formulations; assay type: physicochemical
Description: (§1) Firstly, we quantified the concentration of LY2157299 in plasma of female CD-1 mice by a liquid chromatographic method, in order to define the concentration for the therapeutic window. Therefore, the drug was administered orally and given in two formulations. Group 1 (15 mice) received Galunisertib as suspension (75 mg/kg) prepared by mixing Galunisertib with 1% Carboxymethylcellulose, 0.5% Sodium Lauryl Sulfate, 0.085% Povidone, followed by sonication in a water bath sonicator or with a probe sonicator until a fine suspension with a final concentration of 7.5 mg/mL was achieved. Group 2 (15 mice) received Galunisertib as solution (150 mg/kg solution) prepared by dissolving the drug in 10% of dimethylsulfoxide (DMSO), and then adding sequentially polyethylene glycol (PEG)400 (30%), ethanol (EtOH) (10%), saline (30%) and HCl 0.01 M (20%) at a final pH of ~6 under mixing to a final concentration of 15 mg/mL.

[3] = system: pancreatic ductal adenocarcinoma; set-up: method as in PMID 30866547; conditions: ref [17]; cited from earlier work
HepG2 cells = system: HepG2 cells; set-up: method as in PMID 23826206; conditions: exogenous TGF-β1 in vitro, ref [22]; cited from earlier work
CD44 and THY1 = system: CD44 and THY1; set-up: method as in PMID 29515105, PMID 26057634; conditions: HLE and HLF cells in vitro; ref [24, 25]; cited from earlier work
[4] = system: invasive HCC cells (HLE and HLF); set-up: method as in PMID 29515105, PMID 26057634; conditions: in vitro and in ex vivo human HCC samples; ref [24, 25]; cited from earlier work
[5] = Plasma pharmacokinetics of Galunisertib after single oral dose (HPLC-FL); assay type: in vivo, mouse; conditions: for AUC(0-t) / Cmax / Tmax / half-life / k el: mouse, single oral dose, female CD-1 mice, plasma
Description: as §1
The volume of administration was 10mL/kg for single treatment. Physical appearance, behavior as well as general and local clinical signs of the mice were monitored throughout the experiment. […] At predefined time points (0.5, 1, 2, 4, 8 h after administration), the animals were deeply anesthetized by isoflurane followed by a complete retro-orbital bleeding. The blood was collected in heparinized tubes and centrifuged at 6000× g for 5–10 minutes within 15 minutes after collection. The plasma was transferred to tubes and stored at −20 °C until analysis.
To quantify the concentration of Galunisertib, plasma was measured by a HPLC/Fluorimetric (HPLC-FL) method.
The pharmacokinetic parameters (Kelim, T1/2, and Tmax.) represented as mean ± SD of three animals/time for both Galunisertib formulations were determined using the MKModel by Nick Holford software Version 4, (Biosoft, Ferguson, MO, USA) or equivalent pharmacokinetic programs (Table 4).

SKIL and PMEPA1 mRNA = conditions: HCC tumor tissues; ref [26]; cited from earlier work
TGF-β1 SMAD2/3 pathway = system: TGF-β1 SMAD2/3 pathway; set-up: method as in PMID 29957876; conditions: CC14-induced mice; ref [20]; cited from earlier work
CD133 and Vimentin = system: CD133 and Vimentin; set-up: method as in PMID 29805610; conditions: ref [23]; cited from earlier work
[6] = system: TGF-β linked EMT transition; conditions: female BALB/C nude mice, subcutaneous Hg2 cells; ref [44]; cited from earlier work

In the case of `Cc1cccc(-c2[nH]c(CNc3ccccc3F)nc2-c2ccc3ncnn3c2)n1` [EW-7197], the “Effect on tumor growth” value (SK-HEP1-Luc cells) is given as “ALK 5 inhibitor interferes with tumor growth”.
For `Cc1cccc(-c2nn3c(c2-c2ccnc4ccc(C(N)=O)cc24)CCC3)n1` [Galunisertib], the “Bioluminescence (average radiance, IVIS) vs vehicle (GP1)” value (HepG2-Luc cells; GP2 (LY × OS): 10 mL/kg Galunisertib solution via gastric probe) was “no significant difference in bioluminescence”, the “Bioluminescence (average radiance, IVIS) vs vehicle (GP1)” value (HepG2-Luc cells; GP3 (LY × IV): 5 mL/kg Galunisertib encapsulated in polymeric nanocapsules, intravenous) was “no significant difference in bioluminescence” and the “Effect on tumor regression or prevention of metastasis” value (HepG2-Luc cells; treated groups (GP2 gavage, GP3 intravenous) vs control, treatment period Day 16–Day 44) was “no effect on tumor regression or prevention of metastasis”. For the same compound, the “mRNA level of the drug target compared to controls treated with vehicle” value ([1]; orthotopic HepG2-Luc model, NOG mice) was “statistically significant reduction (p = 0.03)”, the “mRNA expression of TGF-βI, TGF-β RI and TGF-β RII levels vs controls” value ([1]; mice treated with Galunisertib solution) was “significant (p < 0.05) down-regulation” and the “mRNA expression of TGF-βI, TGF-β RI and TGF-β RII levels vs controls” value ([1]; mice treated with encapsulated Galunisertib) was “significant (p < 0.05) down-regulation”. The “Appearance / solubility in formulation” value ([2]; new formulation, 150 mg/kg solution: 10% DMSO, 30% PEG400, 10% EtOH, 30% saline, 20% HCl 0.01 M, pH ~6, 15 mg/mL) was “completely clear solution”, the “Appearance / solubility in formulation” value ([2]; old formulation (75 mg/kg): 1% Carboxymethylcellulose, 0.5% Sodium Lauryl Sulfate, 0.085% Povidone, 7.5 mg/mL) was “only moderately soluble” and the “Effect on mast cell-mediated resistance to GEM/NAB (reduced apoptosis, TGF-β signaling, invasion)” value [3] was “restored”. The “Effect on TGF-β1-induced changes (flat, larger cells; reduced E-cadherin in cell–cell contact)” value (HepG2 cells) was “reversed”, the “Expression of CD44 and THY1” value (CD44 and THY1) was “reducing the expression” and the “Colony formation, liver spheroids and invasive growth capacity” value [4] was “decrease”. For the same compound, the “Cmax and AUClast higher than the 75 mg/kg suspension” value ([5]; 150 mg/kg solution vs 75 mg/kg suspension, considering the dose correcting factor) was 2.5 fold, the AUC(0-t) ([5]; Solution (150 mg/kg)) was 15500 ng·h/mL and the Cmax ([5]; Solution (150 mg/kg)) was 19000 ng/mL. For the same compound, the Tmax ([5]; Solution (150 mg/kg)) was 30 min, the half-life ([5]; Solution (150 mg/kg)) was 103 min and the k el ([5]; Solution (150 mg/kg)) was 0.000164 s⁻¹. For the same compound, the AUC(0-t) ([5]; Suspension (75mg/kg)) was 3110 ng·h/mL, the Cmax ([5]; Suspension (75mg/kg)) was 3330 ng/mL and the Tmax ([5]; Suspension (75mg/kg)) was 30 min. For the same compound, the half-life ([5]; Suspension (75mg/kg)) was 84 min, the k el ([5]; Suspension (75mg/kg)) was 0.000136 s⁻¹ and the “SKIL and PMEPA1 mRNA expression” value (SKIL and PMEPA1 mRNA) was “strongly down-regulated”.
In the case of `NC(=O)c1ccc(-c2nc(-c3ccc4c(c3)OCO4)c(-c3ccccn3)[nH]2)cc1` [SB431542], the “Effect on liver fibrosis and TGF-β1 SMAD2/3” value (TGF-β1 SMAD2/3 pathway) is listed as “significantly attenuated” and the “Expression of CD133 and Vimentin” value (CD133 and Vimentin) is listed as “upregulated”.
For `C[S+]([O-])CCCCN=C=S` (stereo not shown) [Sulforaphane], the “Effect on TGF-β linked EMT transition” value [6] is given as “Sulforaphane inhibits TGF-β linked EMT transition”.
